# Experimental data from paper doi:10.1101/657387v2 (biorxiv, 2019).
# What was measured:
# Assay in all cases: whole-cell patch clamp, HEK-293T
# Type in all cases: cell-based
# TASK-3 (hTASK-3) [1] = molecular target: T1, TASK-3 (hTASK-3) (Homo sapiens, UniProt Q9NPC2)
# TASK-3 (hTASK-3) [2] = molecular target: T1, TASK-3 (hTASK-3); conditions: dose-response
# [3] = molecular target: T2, TASK-3/TASK-1 (hTASK-3/hTASK-1) (Homo sapiens, UniProt O14649+Q9NPC2)
# [4] = molecular target: T2, TASK-3/TASK-1 (hTASK-3/hTASK-1); conditions: read-out: % inhibition at 0.5 μM
# TASK-3 (hTASK-3) [5] = molecular target: T1, TASK-3 (hTASK-3); conditions: read-out: % inhibition at 0.5 μM
# T1 sequence (Q9NPC2 whole entry): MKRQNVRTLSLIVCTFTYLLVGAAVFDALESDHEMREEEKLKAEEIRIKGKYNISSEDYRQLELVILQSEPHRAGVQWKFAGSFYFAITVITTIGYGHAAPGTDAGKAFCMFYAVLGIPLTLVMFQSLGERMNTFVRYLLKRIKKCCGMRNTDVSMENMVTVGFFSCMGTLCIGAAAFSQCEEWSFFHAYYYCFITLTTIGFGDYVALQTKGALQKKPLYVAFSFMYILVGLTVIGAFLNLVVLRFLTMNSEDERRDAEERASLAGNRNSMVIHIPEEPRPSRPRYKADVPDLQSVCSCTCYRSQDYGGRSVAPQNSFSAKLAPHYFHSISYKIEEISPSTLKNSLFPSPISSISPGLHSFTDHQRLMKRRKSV
# T2 sequence (Q9NPC2 whole entry): as above
# T2 sequence (O14649 whole entry): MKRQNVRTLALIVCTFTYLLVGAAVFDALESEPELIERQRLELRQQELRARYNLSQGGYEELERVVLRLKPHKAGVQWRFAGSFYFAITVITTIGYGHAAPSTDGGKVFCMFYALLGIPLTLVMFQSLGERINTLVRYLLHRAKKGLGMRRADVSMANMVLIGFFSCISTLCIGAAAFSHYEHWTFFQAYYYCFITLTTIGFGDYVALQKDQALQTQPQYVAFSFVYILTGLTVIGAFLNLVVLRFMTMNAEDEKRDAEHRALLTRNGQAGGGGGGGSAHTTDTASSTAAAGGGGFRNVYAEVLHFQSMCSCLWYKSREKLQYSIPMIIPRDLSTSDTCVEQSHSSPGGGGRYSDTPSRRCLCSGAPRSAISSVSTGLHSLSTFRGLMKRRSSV
smiles,measurement,setting,value
Cc1ccc(SCc2cc(O)nc(N=C(N)Nc3cccc4ccccc34)n2)cc1 [CHET3-1],EC50,TASK-3 (hTASK-3) [1],500 ± 100 nM
Cc1ccc(SCc2cc(O)nc(N=C(N)Nc3ccc(C(C)(C)C)cc3)n2)cc1 [CHET3-2],"whole-cell patch clamp, HEK-293T",TASK-3 (hTASK-3) [2],while CHET3-2 was inactive (Fig. 4B)
Cc1ccc(SCc2cc(O)nc(N=C(N)Nc3ccc4c(c3)OCCO4)n2)cc1 [CHET3],EC50,[3],2500 ± 200 nM
same,EC50,TASK-3 (hTASK-3) [1],1400 ± 200 nM
CCCC(=O)C1CCN(c2ncnc3c2CN(C(=O)c2ccc(-c4ccccc4)cc2)CC3)CC1 [PK-THPP],inhibition at 0.5 µM,[4],90 ± 2%
same,inhibition at 0.5 µM,TASK-3 (hTASK-3) [5],86 ± 3%
